Assay results as given in US9545409B2 (priority 2012, dated 2017).

Assays:
[1] = system: ischemia-reperfusion eye model
central eye artery = assay: blood circulation in the central eye artery under model ischemia-reperfusion; type: in vivo; conditions: rats, intravenous, doses of 3, 5, 10, 20 and 100 mg/kg
NMDA-receptors = assay: blocking/unblocking of NMDA-receptors; conditions: stated property, no test described
[2] = rats, parenteral, within 96 hours of ischemia, doses of 3, 5, 10, 20 and 100 mg/kg

Which results are given for `OC(COCCC12CC3CC(CC(C3)C1)C2)CN1CCOCC1` (stereo not shown) [1-adamantylethyloxy-3-morpholino-2-propanol]?
disturbed indicators of acid-alkali balance, oxidative stress and energy metabolism in the retina [1, 2]: promoted the normalization; number of apoptotic and necrotic cells in eye posterior part [1, 2]: reduces; perivascular edema in the retina and optic nerve [1, 2]: attenuated; retinal manifestations of endothelial dysfunction and nitrosating stress [1, 2]: promoted the reduction; neuroprotective properties under ischemic-hypoxic injury of retina and optic nerve ([1]; summary of the studies, composition concentration range 3-100 mg/ml): expressed neuroprotective properties; blood circulation in the central eye artery (central eye artery): stimulates; blocking/unblocking NMDA-receptors (NMDA-receptors): fast blocking/unblocking
